Data reported in publication PMC6367500, “18β-glycyrrhetyl-3-O-sulfate would be a causative agent of licorice-induced pseudoaldosteronism” (Scientific Reports, 2019).
Where two headings read alike, the source gives them in different places.

Legend:
[1] = molecular target: T1, rat type 2 11β-hydroxysteroid dehydrogenase (11β-HSD2) (Rattus norvegicus, UniProt P50233); conditions: rat kidney microsome fraction; cited from earlier work
T1 construct: each compound were mixed with the rat kidney microsome fraction, and incubated at 37 °C for 30 min; from tissue; host or cells: rat kidney microsome fraction
T1 sequence (P50233 1-400): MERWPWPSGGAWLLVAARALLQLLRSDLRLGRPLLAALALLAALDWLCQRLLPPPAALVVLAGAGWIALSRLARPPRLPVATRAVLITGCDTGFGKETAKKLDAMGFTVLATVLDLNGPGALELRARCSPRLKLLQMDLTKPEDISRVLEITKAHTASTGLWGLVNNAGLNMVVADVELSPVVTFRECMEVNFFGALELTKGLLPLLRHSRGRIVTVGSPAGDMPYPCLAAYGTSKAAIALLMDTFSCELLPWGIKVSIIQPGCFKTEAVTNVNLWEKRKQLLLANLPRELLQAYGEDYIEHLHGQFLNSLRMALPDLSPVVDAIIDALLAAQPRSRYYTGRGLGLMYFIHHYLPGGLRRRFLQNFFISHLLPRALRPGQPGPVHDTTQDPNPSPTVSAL

[2] = set-up: method as in PMID 17331546; conditions: guinea pigs; cited from earlier work
[3] = molecular target: T1, rat type 2 11β-hydroxysteroid dehydrogenase (11β-HSD2); experiment: Inhibition of 11β-HSD2 in rat kidney microsome fraction; type: biochemical; conditions: for IC50: 37 °C, 30 min
Protocol: Compounds 2 and 3 inhibited 11β-HSD2 in a rat kidney microsome fraction in a concentrations-dependent manner (Fig. 2).
Figure 2 Inhibitory effects of 2 and 3 on 11β-HSD2 using rat kidney microsome. [^3H] cortisone and each compound were mixed with the rat kidney microsome fraction, and incubated at 37 °C for 30 min. Then, the amount of [^3H] cortisol was measured. Data are expressed as mean ± S.E. (n = 4) of the percentage relative to the amount of [^3H] cortisol in the mixture without samples. **P < 0.01 and ***P < 0.001 compared with the groups without the samples by Dunnett’s multiple t-test for compounds 2 and 3, and by Student’s t-test for GA.
Assays were conducted as described by Diederich et al.[20] with slight modifications as described in our previous report.

[4] = molecular target: T2, OAT1 (Homo sapiens, UniProt Q4U2R8); experiment: Uptake into MDCK II cells stably expressing OAT1; type: cell-based; conditions: pooled EHBR plasma, pH 5.5, 37 °C, 15 min
T2 construct: expressed in transfected cells; host or cells: MDCK II cells
T2 sequence (Q4U2R8 1-563): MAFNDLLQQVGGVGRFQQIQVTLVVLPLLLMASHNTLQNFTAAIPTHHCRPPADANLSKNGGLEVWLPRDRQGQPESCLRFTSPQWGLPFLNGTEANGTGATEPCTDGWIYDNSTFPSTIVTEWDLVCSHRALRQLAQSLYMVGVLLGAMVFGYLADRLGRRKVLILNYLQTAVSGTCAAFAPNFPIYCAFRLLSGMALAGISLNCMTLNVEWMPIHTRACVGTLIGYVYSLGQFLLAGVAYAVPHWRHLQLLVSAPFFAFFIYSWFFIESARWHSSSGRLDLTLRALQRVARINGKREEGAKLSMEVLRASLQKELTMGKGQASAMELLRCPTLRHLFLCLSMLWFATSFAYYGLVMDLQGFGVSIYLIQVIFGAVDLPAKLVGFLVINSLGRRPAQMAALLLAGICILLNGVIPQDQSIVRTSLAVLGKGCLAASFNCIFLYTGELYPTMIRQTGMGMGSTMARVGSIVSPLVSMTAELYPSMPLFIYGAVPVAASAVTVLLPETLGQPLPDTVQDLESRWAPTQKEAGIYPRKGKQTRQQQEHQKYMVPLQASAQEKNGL
Protocol: Kidneys were collected from normal SD rats, and the kidney slices were incubated with the plasma samples of EHBRs at 37 °C or 4 °C for 2 h (A–C). MDCK II cells stably expressing OAT1 or OAT3 were incubated with the plasma samples of EHBRs at 37 °C for 15 min (D–F). […] Data are expressed as mean ± S.E. (n = 3 for (C, D), and (E); n = 6 for (A, B), and F). *P < 0.05 and **P < 0.01 vs 4 °C group by Student’s t-test for (A–C), and vs mock cells by Dunnett’s multiple t-test for (D–F).
Uptake studies using rat kidney slices and cells stably expressing OAT1 and OAT3 were conducted with the same protocol as in our previous study.

CC1(C)[C@@H](O[C@@H]2O[C@H](C(=O)O)[C@@H](O)[C@H](O)[C@H]2O)CC[C@]2(C)[C@H]3C(=O)C=C4[C@@H]5C[C@@](C)(C(=O)O)CC[C@]5(C)CC[C@@]4(C)[C@]3(C)CC[C@@H]12 [3MGA, 3-monoglucuronyl glycyrrhetinic acid, reference compound]
IC50 [1]: 0.25 µM | hypokalemia after i.v. injection [2]: caused hypokalemia

CC1(C)[C@@H](OS(=O)(=O)O)CC[C@]2(C)[C@H]3C(=O)C=C4[C@@H]5C[C@@](C)(C(=O)O[C@@H]6O[C@H](C(=O)O)[C@@H](O)[C@H](O)[C@H]6O)C[C@H](O)[C@]5(C)CC[C@@]4(C)[C@]3(C)CC[C@@H]12 [compound 1, 22α-hydroxy-18β-glycyrrhetyl-3-O-sulfate-30-glucuronide]
IC50 [1]: 2 µM

CC1(C)[C@@H](OS(=O)(=O)O)CC[C@]2(C)[C@H]3C(=O)C=C4[C@@H]5C[C@@](C)(C(=O)O)C[C@H](O)[C@]5(C)CC[C@@]4(C)[C@]3(C)CC[C@@H]12 [compound 2, 22α-hydroxy-18β-glycyrrhetyl-3-O-sulfate]
inhibitory titer on 11β-HSD2 compared with GA [3]: slightly higher than that of GA | IC50 [3]: 0.11 µM | uptake into cells expressing OAT1 compared with mock cells [4]: significantly higher

CC1(C)[C@@H](OS(=O)(=O)O)CC[C@]2(C)[C@H]3C(=O)C=C4[C@@H]5C[C@@](C)(C(=O)O)CC[C@]5(C)CC[C@@]4(C)[C@]3(C)CC[C@@H]12 [compound 3, 18β-glycyrrhetyl-3-O-sulfate]
inhibitory titer on 11β-HSD2 compared with GA [3]: slightly higher than that of GA | IC50 [3]: 0.1 µM | uptake into cells expressing OAT1 compared with mock cells [4]: significantly higher
